Assay results reported in paper PMC12635268, “Novel antimicrobial peptides and peptide-microbiome crosstalk in Appalachian salamander skin” (NPJ Biofilms and Microbiomes, 2025).

Experiments:
Assay in all cases: microbe, parasite or virus in culture
A. baumannii ATCC 19606 = conditions: A. baumannii 19606
Method in brief: (§1)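 Broth microdilution in cation-adjusted Mueller-Hinton broth, final inoculum 1 × 10⁵ CFU/mL, peptides 0.25 to 128 μg/mL in 0.02% TFA + 0.04% BSA. Duplicates incubated 20 h at 37 °C without agitation. MIC read visually per CLSI with image-analysis support.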

E. coli ATCC 35218 = conditions: E. coli 35218
Method in brief: as §1

E. faecium ATCC 19434 = conditions: E. faecium 19434
Method in brief: as §1

E. faecium ATCC 49224 = conditions: E. faecium 49224
Method in brief: as §1

K. pneumoniae ATCC 13883 = conditions: K. pneumoniae 13883
Method in brief: as §1

[1] = system: K. pneumoniae ATCC 700603; conditions: K. pneumoniae 700603
Method in brief: as §1

P. aeruginosa ATCC 27853 = conditions: P. aeruginosa 27853
Method in brief: as §1

P. aeruginosa MRSN 5519 = conditions: P. aeruginosa 5519
Method in brief: as §1

S. aureus ATCC 25923 = conditions: S. aureus 25923
Method in brief: as §1

S. aureus ATCC 43300 = conditions: S. aureus 43300
Method in brief: as §1

P. aeruginosa PA01 = assay type: cell-based
Method in brief: as §1

P. aeruginosa PA01 (Si) = assay type: cell-based; conditions: P. aeruginosa PA01 (Si), not typical ESKAPEE strain
Text: Supplement 41522_2025_837_MOESM13_ESM.xlsx, sheet "Table_S13_ESKAPEE-MIC" | column: Bacterial MIC (µg/mL)

[2] = CAMHB, 1 × 10⁵ CFU/mL, 0.25 to 128 μg/mL, 37 °C 20 h, duplicate, read visually (CLSI)

CC[C@H](C)[C@H](NC(=O)[C@H](CCCCN)NC(=O)[C@H](CCC(=O)O)NC(=O)[C@H](CCCCN)NC(=O)[C@H](CO)NC(=O)[C@H](CCCCN)NC(=O)[C@H](CCCNC(=N)N)NC(=O)[C@H](Cc1ccccc1)NC(=O)[C@H](Cc1ccccc1)NC(=O)[C@H](CC(=O)O)NC(=O)CNC(=O)[C@H](CC(C)C)NC(=O)[C@@H](N)CC(C)C)C(=O)NCC(=O)N[C@@H](CCCCN)C(=O)N[C@@H](CCC(=O)O)C(=O)N[C@@H](Cc1ccccc1)C(=O)N[C@@H](CCCCN)C(=O)N[C@@H](CCCNC(=N)N)C(=O)N[C@H](C(=O)N[C@H](C(=O)N[C@@H](CCC(N)=O)C(=O)N[C@@H](CCCNC(=N)N)C(=O)N[C@H](C(=O)N[C@@H](CCCCN)C(=O)N[C@@H](CC(=O)O)C(=O)N[C@@H](Cc1ccccc1)C(=O)N[C@@H](CC(C)C)C(=O)N[C@@H](CCCNC(=N)N)C(=O)N[C@@H](CC(N)=O)C(=O)N[C@@H](CC(C)C)C(=O)N[C@H](C(=O)N1CCC[C@H]1C(=O)N[C@@H](CCCNC(=N)N)C(=O)N[C@H](C(=O)N[C@@H](CCC(=O)O)C(=O)N[C@@H](CO)C(=O)O)[C@@H](C)O)C(C)C)[C@@H](C)CC)C(C)C)[C@@H](C)CC [LL-37, reference compound]
64 µg/mL: Bacterial MIC (E. faecium ATCC 19434; Week 2 (12/14/2023)) | Bacterial MIC (E. faecium ATCC 49224; Week 2 (12/14/2023))
4 to 8 µg/mL: Bacterial MIC (P. aeruginosa PA01 (Si); Week 2 (12/14/2023))
2 µg/mL: MIC (A. baumannii ATCC 19606; [2]) | Bacterial MIC (A. baumannii ATCC 19606; Week 1 (12/6/2023))
>128.000 µg/mL: Bacterial MIC (S. aureus ATCC 25923; Week 1 (12/6/2023)) | Bacterial MIC (S. aureus ATCC 25923; Week 2 (12/14/2023)) | Bacterial MIC (S. aureus ATCC 43300; Week 1 (12/6/2023)) | Bacterial MIC (S. aureus ATCC 43300; Week 2 (12/14/2023))
16 µg/mL: MIC (P. aeruginosa MRSN 5519; [2]) | Bacterial MIC (P. aeruginosa MRSN 5519; Week 1 (12/6/2023)) | Bacterial MIC (P. aeruginosa MRSN 5519; Week 2 (12/14/2023)) | Bacterial MIC (P. aeruginosa PA01; P. aeruginosa 15692 (PAO1), Week 2 (12/14/2023))
8 µg/mL: MIC (E. coli ATCC 35218; [2]) | Bacterial MIC (E. coli ATCC 35218; Week 2 (12/14/2023)) | Bacterial MIC (K. pneumoniae ATCC 13883; Week 2 (12/14/2023)) | MIC (P. aeruginosa ATCC 27853; [2]) | Bacterial MIC (P. aeruginosa ATCC 27853; Week 1 (12/6/2023)) | Bacterial MIC (P. aeruginosa ATCC 27853; Week 2 (12/14/2023))
>128 µg/mL: MIC (S. aureus ATCC 25923; [2]) | MIC (S. aureus ATCC 43300; [2])
4 µg/mL: MIC (K. pneumoniae ATCC 13883; [2]) | Bacterial MIC (K. pneumoniae ATCC 13883; Week 1 (12/6/2023)) | MIC (P. aeruginosa PA01; P. aeruginosa PA01, CAMHB, 1 × 10⁵ CFU/mL, 0.25 to 128 μg/mL, 37 °C 20 h, duplicate, read visually (CLSI)) | Bacterial MIC (P. aeruginosa PA01 (Si); Week 1 (12/6/2023))
32 µg/mL: MIC (E. faecium ATCC 19434; [2]) | Bacterial MIC (E. faecium ATCC 19434; Week 1 (12/6/2023)) | MIC (E. faecium ATCC 49224; [2]) | Bacterial MIC (E. faecium ATCC 49224; Week 1 (12/6/2023)) | MIC [1, 2] | Bacterial MIC ([1]; Week 1 (12/6/2023))
